From patent US20220325173A1, “RNA FLUORESCENT PROBE FOR RAPIDLY DISTINGUISHING CANCER TISSUE FROM NORMAL TISSUE BASED ON NUCLEOLAR MORPHOLOGICAL CHANGES” (SHANDONG UNIVERSITY, priority 2020, published 2022)

Columns and labels:
[1] = tested on: cytoplasmic RNA and nucleoli in SiHa cells; experiment: Staining live SiHa cells with CAPY-AP, confocal laser scanning microscopy; type: cell-based; conditions: 5 μM CAPY-AP, 30 min, 488 nm laser, green channel 500-600 nm
Protocol: Obtaining method: the SiHa cells are incubated with CAPY-AP for 30 min, and then the cells are irradiated with a 488 nm laser under a confocal laser scanning microscope to obtain micrographs. FIG. 1a is the image of green channel at 500-600 nm from CAPY-AP excited by the 488 nm laser. FIG. 1B is a differential interference contrast (DIC) micrograph scanned by a bright field laser. FIG. 1c is the merge image of FIG. 1a and FIG. 1b.
SiHa cells were cultured in adherent conditions in a culture media containing 10% fetal bovine serum and incubated in a 37° C. and 5% CO2 saturated humidity incubator. The culture media was replaced every 2-3 days for passage once. […]
First, DMSO solution of a 5 mM CAPY-AP was prepared as a stock solution. […] After staining, the cover glass with cells was taken out, excess probes were washed off, the cover glass with the cell growth side facing down covers a glass slide, and the staining locations, fluorescence distribution and brightness changes of the cells were observed under a confocal laser scanning microscope (the cells were irradiated with a 488 nm laser).

RNA in SiHa cells = experiment: RNase digestion assay: staining of RNase-treated fixed SiHa cells with CAPY-AP; type: cell-based; conditions: RNase 25 μg/mL 2 hours, then 5 μM CAPY-AP 30 min, 488 nm laser, green channel 500-600 nm
Source text: Obtaining method: the fixed SiHa cells treated with RNase and then stained with CAPY-AP. Under the confocal laser scanning microscope, the cells are irradiated with the 488 nm laser to obtain micrographs. FIG. 2a is the image of a green channel at 500-600 nm from CAPY-AP excited by the 488 nm laser. FIG. 2b is a differential interference contrast (DIC) micrograph scanned by a bright field laser. FIG. 2c is the merge image of FIG. 2a and FIG. 2b.
Preparation of fixed cells: first, the cover glass covered with the SiHa cells prepared in Example 2 was immersed in a 4% paraformaldehyde solution for 30 min, and then 0.5%
Triton X-100 was used for permeation at room temperature for 2 min to obtain the fixed cells.
A group of the above fixed cells was taken out and digested in an incubator for 2 hours after RNase with a 25 μg/mL concentration was added, then washed with PBS 3 times and stained with a 5 μM CAPY-AP in a CO2 incubator for 30 min. The cover glass with stained cells was taken out, excess dyes were washed off, the cover glass with a cell growth side facing down covers a glass slide, and the staining locations, fluorescence distribution and brightness changes of the cells were observed under a confocal laser scanning microscope (the cells were irradiated with a 488 nm laser) and recorded.

[2] = tested on: cytoplasmic RNA and nucleoli in human mammary cancer tissue and normal mammary tissue; experiment: Fluorescence staining of frozen sections of human mammary cancer tissue and its adjacent normal tissue
Source text: Obtaining method: after the frozen sections of human mammary cancer tissue and its adjacent normal tissue are stained with CAPY-AP and Hoechst 33342, the tissue is irradiated with 488 nm and 405 nm lasers respectively under the confocal laser scanning microscope, and superposition images of two channels (blue channel: 420-450 nm, green channel: 500-600 nm) are obtained. The frozen sections of the same tissue are stained with H&E to obtain H&E staining images. Amongst, the enlarged images come from two box regions of fluorescent staining images of mammary cancer tissue.
(§1) The frozen sections of the mammary cancer tissue and its adjacent normal tissue from intraoperative pathological samples of breast cancer patients (Pathology No. 57977.18) were obtained from the department of pathology, Qilu Hospital of Shandong University. In order to stain, the frozen sections were immersed into a 10% EtOH PBS buffer solution with a 10 μM CAPY-AP and a 10 μM Hoechst 33342 for 10 min, and then observed under a confocal laser scanning microscope (the tissue was irradiated with 488 nm and 405 nm lasers respectively) to obtain fluorescence images. The fluorescence images were compared with the corresponding H&E images.
as §1, with “60551.18)” for “57977.18)”
as §1, with “61864.18)” for “57977.18)”

[3] = 10 μM CAPY-AP with 10 μM Hoechst 33342, 10% EtOH PBS, 10 min, 488 nm and 405 nm lasers

Structure (SMILES): CCn1c2ccccc2c2cc(/C=C/c3cc[n+](CCCN)cc3)ccc21 [CAPY-AP, (E)-1-(3-aminopropyl)-4-(2-(9-ethyl-9H-carbazol-3-yl)vinyl)pyridine-1-ium dibromide]
- staining locations and fluorescence distribution in live SiHa cells (FIG. 1) [1]: obvious green light distribution in cytoplasmic and nucleolar areas
- fluorescence of fixed SiHa cells after RNase treatment (FIG. 2) (RNA in SiHa cells): fluorescence in the nucleoli and cytoplasm is almost invisible
- fluorescence distribution in frozen sections, Pathology No. 57977.18 (FIG. 3) [2, 3]: obvious green light distribution in cytoplasmic and nucleolar areas, while no fluorescence exists in extracellular matrices
- imaging of cytoplasmic RNA and nucleoli in frozen sections, Pathology No. 60551.18 (FIG. 4) [2, 3]: can specifically image the cytoplasmic RNA and nucleoli in the frozen sections of the human mammary pathological tissue
- imaging of cytoplasmic RNA and nucleoli in frozen sections, Pathology No. 61864.18 (FIG. 5) [2, 3]: can specifically image the cytoplasmic RNA and nucleoli in the frozen sections of the human mammary pathological tissue
- imaging of cytoplasmic RNA and nucleoli in frozen sections, summary of FIG. 3, FIG. 4 and FIG. 5 ([2]; three pathology samples together, CAPY-AP and Hoechst 33342): can specifically image the cytoplasmic RNA and nucleoli in frozen sections of human mammary pathological tissue
